Source: ChEMBL document CHEMBL1158429, “Selective cytochrome P450 3A4 inhibitory activity of Amaryllidaceae alkaloids” (Bioorg Med Chem Lett, 2009)

Target: Cytochrome P450 3A4 (Homo sapiens, UniProt P08684)
Test: Inhibition of human CYP3A4 assessed as biotransformation of 7-benzyloxyquinoline; call rule not given here
Format: ADME

Cytochrome P450 3A4, sequence (P08684 whole entry): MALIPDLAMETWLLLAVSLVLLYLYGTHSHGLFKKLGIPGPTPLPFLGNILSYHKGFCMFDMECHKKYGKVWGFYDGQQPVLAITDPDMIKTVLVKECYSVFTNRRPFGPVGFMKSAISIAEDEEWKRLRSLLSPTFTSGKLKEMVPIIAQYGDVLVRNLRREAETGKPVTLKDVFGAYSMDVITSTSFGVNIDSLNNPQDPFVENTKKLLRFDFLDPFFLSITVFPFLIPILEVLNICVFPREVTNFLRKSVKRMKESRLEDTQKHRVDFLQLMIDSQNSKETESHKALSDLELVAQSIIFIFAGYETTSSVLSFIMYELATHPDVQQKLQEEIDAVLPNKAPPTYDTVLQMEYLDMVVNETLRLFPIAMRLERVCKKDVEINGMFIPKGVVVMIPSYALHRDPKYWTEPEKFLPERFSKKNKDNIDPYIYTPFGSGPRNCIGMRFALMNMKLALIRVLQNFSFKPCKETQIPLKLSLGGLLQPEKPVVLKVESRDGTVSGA

For `O[C@H]1[C@H]2c3cc4c(cc3CN3CCC(=C[C@@H]1O)[C@H]23)OCO4` [LYCORINE], which Ki is on record?
The Ki was “Not Active”.

How did the Ki (read-out: Ki) turn out when `CC(C)(C)[Si](C)(C)O[C@H]1C=C2CCN3Cc4cc5c(cc4[C@H]([C@@H]1O)[C@@H]23)OCO5` was run?
The Ki was 0.26 µM.

With `CC(=O)O[C@H]1[C@H]2c3cc4c(cc3CN3CCC(=C[C@@H]1OC(C)=O)[C@H]23)OCO4` as the compound, how does the Ki (read-out: Ki) read?
Its Ki is 11 µM.

For `CC(=O)O[C@H]1[C@H]2c3cc4c(cc3CN3CCC(=C[C@@H]1O[Si](C)(C)C(C)(C)C)[C@H]23)OCO4`, which Ki (read-out: Ki) is on record?
The Ki was 0.21 µM.

And the Ki (read-out: pKi (converted))?
Its Ki is 0.158 µM.

For `O=C1N[C@H]2[C@H](O)[C@H](O)[C@@H](O)[C@H](O)[C@@H]2c2cc3c(c(O)c21)OCO3` [PANCRATISTATIN], which Ki is on record?
Its Ki is “Not Active”.

Which Ki (read-out: Ki) does the source give for `CC(=O)O[C@H]1[C@H]2c3cc4c(cc3CN3CCC(=C[C@@H]1O)[C@H]23)OCO4` here?
Its Ki is 7.6 µM.

For `O=C1N[C@@H]2C(=C[C@H](O)[C@@H](O)[C@H]2O)c2cc3c(c(O)c21)OCO3` [NARCICLASINE], which Ki (read-out: Ki) is on record?
The Ki was 0.63 µM.
